Data taken from patent publication US20250002608A1, “TREATMENT OF PAIN” (UTI Limited Partnership, priority 2021, published 2025).

Columns and labels:
[1] = tested on: ALK; settings: human, in vivo; cited from earlier work
[2] = tested on: small DRG neurons; assay: Excitability of small DRG neurons exposed to ALKAL2 (current clamp); assay type: cell-based, mouse; settings: for resting membrane potential (RMP): small DRG neurons, n=13
Protocol: DRG neurons were harvested from adult mice and enzymatically dissociated in Hank's balanced salt solution (HBSS) containing 2 mg/ml collagenase type I and 4 mg/ml dispase (Invitrogen) for 45 min at 37° C. […] Electrophysiological recordings were conducted using an external solution containing (in mM): 140.0 NaCl, 1.5 CaCl2, 2.0 MgCl2, 5.0 KCl, 10.0 HEPES, 10.0 D-glucose, pH 7.4 adjusted with NaOH, on the stage of an inverted epi-fluorescence microscope (Olympus IX51). DRG neuron were recorded based on size, knowing that TRPV1 is expressed in small neurons […], and pHluorin fluorescent signal. Action potentials were recorded using current clamp. Borosilicate glass (Harvard Apparatus Ltd.) pipettes were pulled and polished to 2-5 MQ resistance with a DMZ-Universal Puller (Zeitz-Instruments GmbH.) and filled with an internal solution containing (in mM): 140.0 KCl, 5.00 NaCl, 1 CaCl2, 1.0 EGTA, 10.0 HEPES, 1.0 MgCl2, 3.0 ATP Na2, pH 7.3 adjusted with KOH. All solutions were prepared and used at room temperature (22±2° C.) and their osmolarity adjusted to 310 mOsm. […] Recordings were performed using an Axopatch 200B amplifier (Axon Instruments, Foster City, CA, USA). Current-clamp protocols were applied using pClamp 10.4 software (Axon Instruments). […] Average DRG neuron capacitance was 12.45±0.85 pF. […] For prolonged ALKAL2 treatment, neurons were incubated with a low concentration of 10 nM for 16 hours.

[3] = tested on: small (<20 μm) DRG neurons; assay: Neurite outgrowth of DRG neurons co-cultured with ALKAL2-transfected HEK cells; assay type: cell-based, mouse
Text: Previous work has shown that the ALK receptor plays a central role in the development of neural-crest derived cells and neurite outgrowth (18, 19, 37, 38). Using a co-culture system, we tested whether secreted ALKAL2 is able to activate ALK on DRG neurons, thus promoting neurite outgrowth through an autocrine/paracrine signaling process. In this assay, HEK cell monolayers seeded in the upper chamber of a transwell were transfected with ALKAL2, and then placed above acutely dissociated DRG neurons seeded into the lower chamber (FIG. 4A). DRG neurons were exposed to HEK-secreted ALKAL2 for a further 16 hours, after which, neurite growth was assessed on small and medium size neurons (FIG. 4A).
DRG neurons were harvested from adult mice and enzymatically dissociated in Hank's balanced salt solution (HBSS) containing 2 mg/ml collagenase type I and 4 mg/ml dispase (Invitrogen) for 45 min at 37° C. DRGs were rinsed twice in HBSS and once in Neurobasal A culture medium (Thermo Fisher Scientific) supplemented with 2% B-27, 10% heat-inactivated fetal bovine serum (HI-FBS), 100 μg/ml streptomycin, 100 U/ml penicillin, 100 ng/ml of Nerve Growth Factor (NGF) and 100 ng/ml glial cell-derived neurotrophic factor (GDNF) (all from Invitrogen). Individual neurons were dispersed by trituration through a fire-polished glass Pasteur pipette in 4 ml media and cultured overnight at 37° C. with 5% CO2 in 96% humidity on glass coverslips previously treated with 25% Poly-Ornithine and Laminin (both from Sigma).
For co-culture experiments, human embryonic kidney (HEK) 293 tsA-201 cells were grown to 80% confluence at 37° C. (5% CO2) in Dulbecco's modified Eagle's medium (+10% fetal bovine serum, 200 units/ml penicillin and 0.2 mg/ml streptomycin (Invitrogen, Carlsbad, CA, USA)) in the transwell of a 12-well cell culture plate (Gibco). Cells were transfected with 0.5 or 1 μg of ALKAL2 plasmid (Genomics, ABIN3292379) using the calcium phosphate method and washed 12 hours after transfection. After another 8 hours, isolated DRG neurons plated on glass coverslips were placed in the bottom chamber of the 12-well plate and the media was changed to Neurobasal A culture medium (see above). Electrophysiological recordings or immunohistochemistry were conducted 24 hours later.
For the neurite outgrowth assay, cultured DRG neurons were either treated with increasing concentrations ([…], 1 nM, 10 nM, 100 nM and 1 μM) of recombinant mouse ALKAL2 (MyBioSource LLC, MBS14253) or co-cultured with ALKAL2 expressing HEK cells (see above) in Neurobasal A medium. After 24 h, the cells were washed twice with HBSS, fixed in 4% PFA for 15 min., incubated in blocking solution (PBS+1% BSA) for 30 min. and then immunostained with anti-β-tubulin III antibody (rabbit, 1/1000, Sigma-Aldrich) overnight at 4° C. Cells were washed in PBS twice then incubated with a goat-anti rabbit IgG conjugated to Alexa Fluor 488 (1/2000, Invitrogen) for 1 h. After several washes, coverslips were mounted on slides and confocal images acquired. Alexa-488 antibody was visualized by excitation with an argon laser […] and emission detected using a long-pass 530 nm filter. Alexa-555 antibody was visualized by excitation at 543 nm with a HeNe laser, and emission detected using a 585-615 nm band-pass filter.

[4] = target: T1, TRPV1 wild type (Homo sapiens, UniProt Q8NER1); assay: Capsaicin-evoked TRPV1 current (I-V ramp) in HEK cells transfected with TRPV1 wild type; assay type: cell-based; settings: capsaicin 100 nM, TRPV1 WT
T1 construct: expressed in transfected cells; host or cells: HEK cells
T1 sequence (Q8NER1 whole entry, species assumed): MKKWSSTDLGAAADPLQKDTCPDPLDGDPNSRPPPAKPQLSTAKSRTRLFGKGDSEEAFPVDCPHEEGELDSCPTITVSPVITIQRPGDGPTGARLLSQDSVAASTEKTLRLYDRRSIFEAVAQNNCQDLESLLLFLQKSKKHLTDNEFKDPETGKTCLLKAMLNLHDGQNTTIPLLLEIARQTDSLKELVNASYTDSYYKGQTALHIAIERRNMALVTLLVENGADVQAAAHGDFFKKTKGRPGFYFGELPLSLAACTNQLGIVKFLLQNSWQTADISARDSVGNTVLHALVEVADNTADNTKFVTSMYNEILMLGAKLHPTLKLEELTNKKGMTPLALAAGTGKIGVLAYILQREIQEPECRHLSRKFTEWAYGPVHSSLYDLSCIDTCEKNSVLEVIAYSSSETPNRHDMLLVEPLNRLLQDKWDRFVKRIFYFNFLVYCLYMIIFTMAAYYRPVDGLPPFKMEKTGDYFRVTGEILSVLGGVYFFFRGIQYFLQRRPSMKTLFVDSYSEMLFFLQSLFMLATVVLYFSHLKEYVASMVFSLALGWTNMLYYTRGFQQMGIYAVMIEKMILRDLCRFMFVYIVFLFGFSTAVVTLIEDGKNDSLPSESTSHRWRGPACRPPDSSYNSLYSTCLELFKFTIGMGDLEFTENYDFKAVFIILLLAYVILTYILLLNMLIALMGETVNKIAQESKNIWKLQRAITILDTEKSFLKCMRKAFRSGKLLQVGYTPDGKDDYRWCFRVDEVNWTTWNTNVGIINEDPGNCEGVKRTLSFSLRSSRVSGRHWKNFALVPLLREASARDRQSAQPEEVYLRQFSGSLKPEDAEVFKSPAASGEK

[5] = tested on: TRPV1-pHluorin; assay: Capsaicin-evoked TRPV1 current (I-V ramp) in HEK cells transfected with TRPV1-pHluorin; assay type: cell-based; settings: capsaicin 100 nM
[6] = tested on: DRG neurons from TRPV1-pHluorin mice; assay: Current-clamp recording of DRG neurons from TRPV1-pHluorin mice exposed to capsaicin; assay type: cell-based, mouse; settings: capsaicin 100 nM
Protocol: (§1) DRG neurons were harvested from adult mice and enzymatically dissociated in Hank's balanced salt solution (HBSS) containing 2 mg/ml collagenase type I and 4 mg/ml dispase (Invitrogen) for 45 min at 37° C. […] Electrophysiological recordings were conducted using an external solution containing (in mM): 140.0 NaCl, 1.5 CaCl2, 2.0 MgCl2, 5.0 KCl, 10.0 HEPES, 10.0 D-glucose, pH 7.4 adjusted with NaOH, on the stage of an inverted epi-fluorescence microscope (Olympus IX51). DRG neuron were recorded based on size, knowing that TRPV1 is expressed in small neurons […], and pHluorin fluorescent signal. Action potentials were recorded using current clamp. Borosilicate glass (Harvard Apparatus Ltd.) pipettes were pulled and polished to 2-5 MQ resistance with a DMZ-Universal Puller (Zeitz-Instruments GmbH.) and filled with an internal solution containing (in mM): 140.0 KCl, 5.00 NaCl, 1 CaCl2, 1.0 EGTA, 10.0 HEPES, 1.0 MgCl2, 3.0 ATP Na2, pH 7.3 adjusted with KOH. All solutions were prepared and used at room temperature (22±2° C.) and their osmolarity adjusted to 310 mOsm. […] Recordings were performed using an Axopatch 200B amplifier (Axon Instruments, Foster City, CA, USA). Current-clamp protocols were applied using pClamp 10.4 software (Axon Instruments). […] Average DRG neuron capacitance was 12.45±0.85 pF. […]

[7] = target: T2, TRPV1-pHluorin (Mus musculus, UniProt Q704Y3); assay: Capsaicin dose-response by calcium imaging on DRG neurons from TRPV1-pHluorin mice; assay type: cell-based; settings: read-out: EC50 of dose-response curve evoked by capsaicin, room temperature (22° C.), n=28
T2 construct: fused on or other part: superecliptic pHluorin (ecliptic GFP, EcGFP) inserted into the extracellular turret between His and Lys (615/616; H614/K615 elsewhere in the source)
T2 sequence (Q704Y3 1-615 limits assumed): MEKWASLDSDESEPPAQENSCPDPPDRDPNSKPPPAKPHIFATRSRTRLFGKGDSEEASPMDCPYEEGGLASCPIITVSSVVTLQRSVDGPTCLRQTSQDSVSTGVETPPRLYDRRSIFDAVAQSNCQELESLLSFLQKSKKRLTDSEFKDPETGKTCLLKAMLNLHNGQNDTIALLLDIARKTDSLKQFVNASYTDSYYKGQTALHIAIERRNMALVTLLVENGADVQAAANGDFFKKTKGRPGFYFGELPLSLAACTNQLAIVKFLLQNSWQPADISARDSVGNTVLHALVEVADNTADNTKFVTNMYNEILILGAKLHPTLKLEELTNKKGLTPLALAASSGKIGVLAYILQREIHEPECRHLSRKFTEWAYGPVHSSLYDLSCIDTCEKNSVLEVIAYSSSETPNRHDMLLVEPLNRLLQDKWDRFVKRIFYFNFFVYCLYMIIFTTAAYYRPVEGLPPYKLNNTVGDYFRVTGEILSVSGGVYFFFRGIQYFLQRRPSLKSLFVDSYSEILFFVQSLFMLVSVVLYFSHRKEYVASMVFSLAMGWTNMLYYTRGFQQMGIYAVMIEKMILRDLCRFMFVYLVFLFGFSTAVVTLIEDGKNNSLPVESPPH
T2 sequence (Q704Y3 616-839 limits assumed): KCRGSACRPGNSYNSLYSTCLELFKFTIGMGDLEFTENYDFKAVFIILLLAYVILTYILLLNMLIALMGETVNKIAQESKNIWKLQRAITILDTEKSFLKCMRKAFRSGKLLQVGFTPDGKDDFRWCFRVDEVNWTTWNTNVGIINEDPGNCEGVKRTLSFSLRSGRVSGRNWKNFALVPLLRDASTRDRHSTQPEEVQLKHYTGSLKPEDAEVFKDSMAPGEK

[8] = tested on: DRG neurons from WT mice; assay: Current-clamp recording of DRG neurons from WT mice exposed to capsaicin; assay type: cell-based, mouse; settings: capsaicin 100 nM
Protocol: as §1

[9] = target: anaplastic lymphoma kinase (ALK) receptor, endogenous on mouse DRG neurons and in the mouse spinal dorsal horn (mouse) (UniProt P97793); assay: cell-based or functional assay
Chain of anaplastic lymphoma kinase (ALK) receptor, endogenous on mouse DRG neurons and in the mouse spinal dorsal horn (mouse) (P97793 19-1621): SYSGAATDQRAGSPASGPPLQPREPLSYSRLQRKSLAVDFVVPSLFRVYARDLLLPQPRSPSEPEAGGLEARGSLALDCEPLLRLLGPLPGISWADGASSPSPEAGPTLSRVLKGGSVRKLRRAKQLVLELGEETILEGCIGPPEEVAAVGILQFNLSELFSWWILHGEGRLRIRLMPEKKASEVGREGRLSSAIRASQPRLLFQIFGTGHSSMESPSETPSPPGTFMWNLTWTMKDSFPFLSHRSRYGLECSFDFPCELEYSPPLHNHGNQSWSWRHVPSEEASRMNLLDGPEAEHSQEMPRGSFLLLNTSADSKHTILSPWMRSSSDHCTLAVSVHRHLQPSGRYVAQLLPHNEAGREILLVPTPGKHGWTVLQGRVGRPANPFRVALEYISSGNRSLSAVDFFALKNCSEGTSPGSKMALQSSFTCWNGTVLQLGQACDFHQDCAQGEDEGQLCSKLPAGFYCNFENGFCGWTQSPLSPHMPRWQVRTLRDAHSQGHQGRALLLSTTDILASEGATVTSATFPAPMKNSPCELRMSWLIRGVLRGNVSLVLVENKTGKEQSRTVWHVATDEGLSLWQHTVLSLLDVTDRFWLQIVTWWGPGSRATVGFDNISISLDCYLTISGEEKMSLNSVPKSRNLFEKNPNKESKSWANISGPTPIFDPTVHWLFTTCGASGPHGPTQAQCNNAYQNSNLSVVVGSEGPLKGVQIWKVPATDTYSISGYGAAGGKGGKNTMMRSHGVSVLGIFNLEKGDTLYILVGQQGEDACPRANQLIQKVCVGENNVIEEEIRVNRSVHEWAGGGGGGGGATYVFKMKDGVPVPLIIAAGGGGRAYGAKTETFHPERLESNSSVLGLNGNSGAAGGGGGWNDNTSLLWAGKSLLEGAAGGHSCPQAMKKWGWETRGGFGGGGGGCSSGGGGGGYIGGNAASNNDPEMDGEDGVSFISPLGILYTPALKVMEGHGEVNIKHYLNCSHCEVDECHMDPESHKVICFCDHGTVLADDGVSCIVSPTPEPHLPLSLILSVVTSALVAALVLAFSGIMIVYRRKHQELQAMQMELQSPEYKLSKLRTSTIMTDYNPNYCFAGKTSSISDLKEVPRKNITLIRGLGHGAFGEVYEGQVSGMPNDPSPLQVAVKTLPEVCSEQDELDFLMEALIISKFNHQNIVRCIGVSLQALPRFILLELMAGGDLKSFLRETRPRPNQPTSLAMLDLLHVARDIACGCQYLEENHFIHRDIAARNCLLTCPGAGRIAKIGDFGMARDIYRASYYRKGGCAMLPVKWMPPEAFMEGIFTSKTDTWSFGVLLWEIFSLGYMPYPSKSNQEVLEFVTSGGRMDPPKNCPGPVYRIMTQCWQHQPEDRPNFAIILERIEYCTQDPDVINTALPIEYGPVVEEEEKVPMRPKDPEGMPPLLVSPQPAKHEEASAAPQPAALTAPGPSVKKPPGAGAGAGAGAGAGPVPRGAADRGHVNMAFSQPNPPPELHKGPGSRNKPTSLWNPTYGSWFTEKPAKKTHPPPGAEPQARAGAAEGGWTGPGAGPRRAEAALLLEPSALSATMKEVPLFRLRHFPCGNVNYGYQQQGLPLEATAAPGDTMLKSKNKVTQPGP

[10] = target: T3, ALK (Mus musculus, UniProt P97793); assay: pALK immunostaining in the spinal dorsal horn after intrathecal ALKAL2; assay type: in vivo; settings: 30 min following intrathecal ALKAL2 injection
T3 construct: from tissue; host or cells: living mice, spinal dorsal horn
T3 sequence (P97793 19-1621): as above
Protocol: (§2) Intrathecal injections were performed in conscious mice. Briefly, mice were manually restrained, the dorsal fur of each mouse was shaved, the spinal column was arched, and a 30-gauge needle attached in a PE20 Polyethylene tube to a 25 μl Hamilton micro syringe (Hamilton, Birmingham, UK) was inserted into the subarachnoid space between the L4 and L5 vertebrae. Accurate positioning of the needle tip was confirmed by a characteristic tail-flick response of animal when the needle if correctly positioned. Intrathecal injections of 10 μl were delivered over a period of 5 seconds.

[11] = target: T3, ALK; assay: Thermal hyperalgesia induced by intrathecal ALKAL2; assay type: in vivo
Protocol: as §2
Three trials for each mouse were performed.

[12] = ALKAL2 co-culture in the presence of Lorlatinib 1 μM
[13] = ALKAL2 plasmid co-culture 16 h, small DRG neurons
[14] = ALKAL2 transfected condition vs control

Molecule: Cc1cc(Nc2ncc(Cl)c(Nc3ccccc3S(=O)(=O)C(C)C)n2)c(OC(C)C)cc1C1CCNCC1 [Ceritinib]
- effect on pain in NSCL cancer patients [1]: could reduce chest, arm and shoulder pain

Molecule: C[C@H]1Oc2cc(cnc2N)-c2c(nn(C)c2C#N)CN(C)C(=O)c2ccc(F)cc21 [Lorlatinib]
- action potential (AP) threshold ([2]; ALKAL2+Lorlatinib group, n=9): −31.59±1.76 mV
- resting membrane potential (RMP) ([2]; ALKAL2+Lorlatinib group): −54.5±1.53 mV
- neurites per neuron [3, 12]: 8.7±1.9
- number of branch points per neuron [3, 12]: 3.6±0.5
- total neurite length per neuron [3, 12]: 83±8.8 μm

Molecule: COc1cc(CNC(=O)CCCC/C=C/C(C)C)ccc1O [capsaicin]
- peak inward current at −100 mV [4]: −10.2±1.63 pA/pF
- peak outward current at +100 mV [4]: 62.82±11.72 pA/pF
- peak inward current at −100 mV [5]: −7.33±2.91 pA/pF
- peak outward current at +100 mV [5]: 61.36±11.97 pA/pF
- resting membrane potential after application of capsaicin [6]: −38.01±2.17 mV
- AP frequency after capsaicin ([6]; 400 pA current injection): 17.22±0.84 Hz
- EC50 [7]: 1.06 ± 0.09 µM
- resting membrane potential after application of capsaicin [8]: −36.61±1.83 mV
- AP frequency after capsaicin ([8]; 400 pA current injection): 18.56±2.44 Hz

B1: ALKAL2 secreted by HEK 293 tsA-201 cells transfected with ALKAL2 plasmid (Genomics, ABIN3292379) (ligand, UniProt Q6UX46 25-152, looked up, species assumed)
ALK and LTK ligand 2: GAEPREPADGQALLRLVVELVQELRKHHSAEHKGLQLLGRDCALGRAEAAGLGPSPEQRVEIVPRDLRMKDKFLKHLTGPLYFSPKCSKHFHRLYHNTRDCTIPAYYKRCARLLTRLAVSPVCMEDKQ
- total neurite length per neuron [9]: 267 µm
- total neurite length per neuron, transwell co-culture [9]: 5 fold
- total neurites in small (<20 µm) DRG neurons (neurites per neuron) [9]: 18.6

B2: ALKAL2: ligand of the ALK receptor; recombinant mouse ALKAL2 or secreted by HEK cells transfected with ALKAL2 plasmid (protein)
chain: QSRGPADRQTLLRLLVELVQELKKFHIGDSKRLQLLGESDFALGRREATDYGADQEEQRVEIVPRDLRMKDKFLKHLTGPLYFSPKCSKHFHRLYHNTRDCTIPAYYKRCARLLTRLAVSPMCMER
- pALK in the spinal dorsal horn [10]: increase in pALK
- action potential (AP) threshold ([2]; ALKAL2 group, n=11): −40.57±2.88 mV
- resting membrane potential (RMP) ([2]; ALKAL2 group): −55.15±2.21 mV
- AP frequency evoked by ascending steps of injected current ([2]; recombinant ALKAL2 for 16 h (10 nM)): pronounced increase
- number of branch points per neuron [3, 13]: 8.9±0.9
- total neurite length per neuron [3, 13]: 267.1±2.2 μm
- total neurites per neuron [3, 13]: 18.6±1.2
- increase in the total neurite length per neuron [3, 14]: five-fold increase
- increase in the total number of neurites (primary and secondary branches) and branching points [3, 14]: two-fold increase
- time after administration at which thermal hypersensitivity is back to baseline ([11]; intrathecal ALKAL2, n=5 each group): 72 h
- thermal hyperalgesia in naïve mice ([11]; recombinant ALKAL2 intrathecal, 0.01, 0.1, 1 uM): induced thermal hyperalgesia lasting several hours in a dose-dependent manner
